Assay results: PMC11541501, “Development of a Candidate ^11C‑Labeled Selective Phosphodiesterase 1 Radioligand for Positron Emission Tomography” (ACS Omega, 2024)
Where two headings read alike, the source gives them in different places.

Columns and labels:
PDE1C = PDE1C (Homo sapiens, UniProt Q14123); assay: PDE1C inhibition; assay type: biochemical
PDE1B [1] = target: T1, PDE1B (Homo sapiens, UniProt Q01064); assay: PDE1B inhibition; assay type: biochemical
5-HT6 = target: T2, 5-HT6 (Homo sapiens, UniProt P50406); assay: Off-target binding, 5-HT6 (NIMH PDSP)
T2 construct: NIMH Psychoactive Drug Screening Program (PDSP)
T2 sequence (P50406 whole entry): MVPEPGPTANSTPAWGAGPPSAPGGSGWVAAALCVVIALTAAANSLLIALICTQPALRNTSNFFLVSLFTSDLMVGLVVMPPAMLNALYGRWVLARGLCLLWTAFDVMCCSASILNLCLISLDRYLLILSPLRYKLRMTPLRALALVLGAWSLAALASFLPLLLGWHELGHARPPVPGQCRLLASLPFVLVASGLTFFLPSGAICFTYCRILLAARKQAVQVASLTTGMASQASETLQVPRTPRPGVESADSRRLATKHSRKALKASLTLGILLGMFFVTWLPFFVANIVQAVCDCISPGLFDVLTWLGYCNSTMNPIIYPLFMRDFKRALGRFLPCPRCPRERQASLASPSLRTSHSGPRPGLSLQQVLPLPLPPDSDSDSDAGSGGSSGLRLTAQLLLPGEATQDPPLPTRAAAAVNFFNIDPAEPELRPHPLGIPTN
Excerpt: (§1) Furthermore, we investigated the off-target binding of PF-04822163 in vitro against 65 major CNS targets, including ion channels, transporters, and GPCR enzymes (Figure S2 in the Supporting Information, supported by the NIMH Psychoactive Drug Screening Program (PDSP)).
(§2) % Inhibition of Target Activity
(§3) Figure S2. Off-target pharmacological evaluation of compound PF-04822163 against major CNS targets, including common GPCRs, enzymes, ion channels, and transporters: initial screening at a concentration of 10 μM (supported by the NIMH PDSP). All data are […]
(§4) Figure S3. The time-activity-curves (0-60 min) of PET studies with [11C]PF-04822163 in rat brains under baseline and blocking conditions. All data were referred to as mean ± SEM,

[2] = system: 65 major CNS targets, including ion channels, transporters, and GPCR enzymes; assay: Off-target binding screen against 65 major CNS targets (NIMH PDSP); conditions: 10 μM testing concentration; except 5-HT2B and 5-HT6
Excerpt: as §1, §2, §3, §4

PDE1B [3] = target: T1, PDE1B; conditions: introduction, literature value; ref Humphrey et al., 2014; cited from earlier work
5-HT2B = target: T3, 5-HT2B (Homo sapiens, UniProt P41595); assay: Off-target binding, 5-HT2B (NIMH PDSP)
T3 construct: NIMH Psychoactive Drug Screening Program (PDSP)
T3 sequence (P41595 whole entry): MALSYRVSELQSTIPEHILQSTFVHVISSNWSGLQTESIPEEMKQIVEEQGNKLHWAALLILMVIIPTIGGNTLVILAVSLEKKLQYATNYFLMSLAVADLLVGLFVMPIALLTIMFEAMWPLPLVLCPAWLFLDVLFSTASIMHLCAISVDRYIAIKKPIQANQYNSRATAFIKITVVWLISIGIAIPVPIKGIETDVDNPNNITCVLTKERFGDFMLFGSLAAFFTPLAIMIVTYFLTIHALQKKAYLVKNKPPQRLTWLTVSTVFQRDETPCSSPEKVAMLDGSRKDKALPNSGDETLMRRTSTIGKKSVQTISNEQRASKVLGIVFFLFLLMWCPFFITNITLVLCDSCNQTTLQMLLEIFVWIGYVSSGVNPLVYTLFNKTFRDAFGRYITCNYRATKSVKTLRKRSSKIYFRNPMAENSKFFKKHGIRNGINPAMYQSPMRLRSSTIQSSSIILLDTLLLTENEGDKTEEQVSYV
Excerpt: as §1, §2, §3, §4

PDE10A = PDE10A (Homo sapiens, UniProt Q9Y233); assay: Potency toward other PDEs (PDE10A); assay type: biochemical
Chain of PDE10A (Q9Y233 whole entry, species assumed): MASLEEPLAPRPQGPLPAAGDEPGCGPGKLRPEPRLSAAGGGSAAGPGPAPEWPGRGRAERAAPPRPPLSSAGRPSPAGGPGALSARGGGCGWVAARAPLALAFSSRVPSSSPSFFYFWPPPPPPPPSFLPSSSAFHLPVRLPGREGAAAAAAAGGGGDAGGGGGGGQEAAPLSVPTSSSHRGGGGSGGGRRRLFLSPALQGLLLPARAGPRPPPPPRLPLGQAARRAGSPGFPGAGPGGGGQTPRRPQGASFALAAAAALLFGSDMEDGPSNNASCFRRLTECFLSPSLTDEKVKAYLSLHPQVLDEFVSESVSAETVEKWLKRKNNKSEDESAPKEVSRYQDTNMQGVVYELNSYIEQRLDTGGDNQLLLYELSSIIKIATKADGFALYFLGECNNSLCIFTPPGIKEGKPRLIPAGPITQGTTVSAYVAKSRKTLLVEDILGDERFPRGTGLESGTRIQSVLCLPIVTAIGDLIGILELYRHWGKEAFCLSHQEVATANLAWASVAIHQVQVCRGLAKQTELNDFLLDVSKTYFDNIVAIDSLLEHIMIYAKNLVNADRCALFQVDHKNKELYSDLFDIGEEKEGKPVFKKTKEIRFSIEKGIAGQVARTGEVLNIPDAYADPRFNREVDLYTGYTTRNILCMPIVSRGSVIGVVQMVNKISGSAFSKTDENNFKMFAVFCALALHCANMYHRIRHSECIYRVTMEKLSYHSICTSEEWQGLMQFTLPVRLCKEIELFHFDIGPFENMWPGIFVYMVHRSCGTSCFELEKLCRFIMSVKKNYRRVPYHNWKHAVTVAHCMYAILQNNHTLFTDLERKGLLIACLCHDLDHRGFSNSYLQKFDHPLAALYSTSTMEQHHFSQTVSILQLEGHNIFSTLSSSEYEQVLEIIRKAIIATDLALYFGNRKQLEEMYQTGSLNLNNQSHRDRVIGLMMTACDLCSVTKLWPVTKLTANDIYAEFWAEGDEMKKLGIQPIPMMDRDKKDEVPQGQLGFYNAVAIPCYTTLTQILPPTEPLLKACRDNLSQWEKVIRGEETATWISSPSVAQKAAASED

[4] = Log D by shake flask method (n-octanol/PBS); assay type: physicochemical; conditions: measured with [11C]PF-04822163
Protocol: as §1
The measurement of log D was performed as previously reported. In brief, [^11C]-PF-04822163, n-octanol (3 mL), and PBS (1×, 3 mL) were added to a centrifuge tube, and vortexing was conducted for 3 min followed by centrifugation (∼14,000 rpm) for 5 min. PBS (around 500 μL) and n-octanol (around 50 μL) were then weighted and measured by a gamma counter.

PDE1B [5] = assay: In vitro autoradiography with [11C]PF-04822163 on rat brain sections, blocking; assay type: binding, Sprague–Dawley (SD) rat; conditions: blocker 10 μM, [11C]PF-04822163 autoradiography
Protocol: With the ligand [^11C]-PF-04822163 in hand, in vitro autoradiography studies were conducted on Sprague–Dawley (SD) rat brain sections to validate its binding specificity toward PDE1. […] In the autoradiography studies on the coronal brain sections, high radioactivity levels were found in the caudate putamen, nucleus accumbens, and olfactory tubercle (Figure a,c).
3 In vitro autoradiography studies of [^11C]-PF-04822163 on rat brain sections. (a) Representative images of autoradiography studies with [^11C]-PF-04822163 under baseline and blocking conditions (PF-04822163 or PF-04827736, 10 μM), (b) quantification of autoradiography studies of [^11C]-PF-04822163 on sagittal rat brain sections, and (c) quantification of autoradiography studies of [^11C]-PF-04822163 on coronal rat brain sections. All data are means ± SD, n ≥ 8. Statistical analysis was conducted with Student’s two-tailed t tests, and asterisks indicated the statistical significance as follows: *p < 0.05, **p ≤ 0.01, and ***p ≤ 0.001.
Autoradiography studies were performed according to previous reports. , In brief, the rat brain sections (20 μm) were preincubated with a Tris–HCl buffer (50 mM) at room temperature for 20 min followed by incubation with [^11C]-PF-04822163 (168 Bq/mL). […] The radioactivity values were normalized as a percentage of the radioactivity relative to the control.

PDE1A = PDE1A (Homo sapiens, UniProt P54750); assay: PDE1A inhibition; assay type: biochemical
Chain of PDE1A (P54750 whole entry, species assumed): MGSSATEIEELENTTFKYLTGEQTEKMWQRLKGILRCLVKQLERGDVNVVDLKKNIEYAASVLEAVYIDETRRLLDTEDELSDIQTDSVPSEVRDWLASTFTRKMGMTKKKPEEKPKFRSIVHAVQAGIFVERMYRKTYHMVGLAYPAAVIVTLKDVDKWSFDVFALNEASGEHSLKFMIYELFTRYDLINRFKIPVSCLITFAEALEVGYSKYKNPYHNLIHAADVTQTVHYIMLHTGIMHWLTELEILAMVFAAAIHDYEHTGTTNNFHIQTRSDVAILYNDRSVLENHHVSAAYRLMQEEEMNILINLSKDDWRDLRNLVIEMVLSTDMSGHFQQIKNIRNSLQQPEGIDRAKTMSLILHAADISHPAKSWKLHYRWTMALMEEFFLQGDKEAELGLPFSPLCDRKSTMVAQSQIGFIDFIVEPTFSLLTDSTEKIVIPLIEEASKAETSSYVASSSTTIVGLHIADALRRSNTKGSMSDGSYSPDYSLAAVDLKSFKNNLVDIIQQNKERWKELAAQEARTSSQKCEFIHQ

PDE1 [6] = assay: Dynamic PET imaging in rat brains; assay type: in vivo, SD rats
Protocol: Encouraged by the results of in vitro evaluation by autoradiography studies with the ligand [^11C]-PF-04822163, dynamic PET imaging studies were conducted with [^11C]-PF-04822163 on SD rats. […] Additionally, an evident washout was observed after initial high uptakes in all brain regions. To assess the in vivo binding specificity of [^11C]-PF-04822163 to PDE1, we carried out blocking studies with the pretreatment of unlabeled PF-04822163 (1 mg/kg, 10 min before the administration of [^11C]-PF-04822163). […] These findings indicate that further optimization of the pharmacological and ADME properties is warranted to obtain a suitable probe for in vivo imaging of PDE1.
4 PET studies of [^11C]-PF-04822163 in rat brains. […]
PET imaging was conducted as previously reported. , An Inveon PET scanner (Siemens) was used for dynamic PET imaging studies, [^11C]-PF-04822163 (ca. 17.5 MBq/1.5 mL) was intravenously injected via the tail vein via a preinstalled catheter, and dynamic PET images were acquired in a 3D mode for a period of 60 min. […] The dynamic PET images were reconstructed using ASIPro VW software, and volumes of interest were calculated.

[7] = Radiometabolic analysis in rat brain and plasma; assay type: in vivo, SD rats; conditions: 15 min postadministration
Protocol: To gain insight into the in vivo stability of [^11C]-PF-04822163, we performed radiometabolic analysis in the brain and plasma of SD rats (Figure ). At 15 min postadministration of [^11C]-PF-04822163, 95% of [^11C]-PF-04822163 remained unchanged in the brain, while in plasma, 26% remained unchanged.
The radiometabolic analysis was performed following a previous report. After the intravenous injection of [^11C]-PF-04822163, SD rats were sacrificed at 15 min postinjection. Plasma samples were quenched with acetonitrile and centrifuged, and the supernatant was assessed by radio-HPLC. The brain was collected and homogenized and quenched with acetonitrile, and the resulting homogenate was centrifuged. The supernatant was analyzed by radio-HPLC.

[8] = Whole-body biodistribution study in mice; assay type: in vivo, ddY mice
Protocol: To investigate the distribution of [^11C]-PF-04822163 in the whole body, we conducted a biodistribution study in ddY mice (Figure ). The radioactivity levels in major organs were assessed at 1, 5, 15, 30, and 60 min after the administration of [^11C]-PF-04822163. […] After the initial uptake, radioactivity accumulations decreased in almost all organs, while the uptake in the small intestine increased, and liver uptake remained at a high level (5% ID/g at 60 min), indicating a hepatobiliary elimination route.
The biodistribution experiment was performed according to previous reports. , In brief, [^11C]-PF-04822163 (4.44 MBq/0.1 mL) was injected (i.v.) into ddY mice via the tail vein. After the administration of [^11C]-PF-04822163, the mice were sacrificed at different time points (1, 5, 15, 30, and 60 min), and tissues of interest were collected. The tissues were weighted and measured by a gamma counter.

PDE1 [9] = conditions: cited from earlier work; for IC50: introduction, literature value

T1 sequence (Q01064 whole entry, species assumed): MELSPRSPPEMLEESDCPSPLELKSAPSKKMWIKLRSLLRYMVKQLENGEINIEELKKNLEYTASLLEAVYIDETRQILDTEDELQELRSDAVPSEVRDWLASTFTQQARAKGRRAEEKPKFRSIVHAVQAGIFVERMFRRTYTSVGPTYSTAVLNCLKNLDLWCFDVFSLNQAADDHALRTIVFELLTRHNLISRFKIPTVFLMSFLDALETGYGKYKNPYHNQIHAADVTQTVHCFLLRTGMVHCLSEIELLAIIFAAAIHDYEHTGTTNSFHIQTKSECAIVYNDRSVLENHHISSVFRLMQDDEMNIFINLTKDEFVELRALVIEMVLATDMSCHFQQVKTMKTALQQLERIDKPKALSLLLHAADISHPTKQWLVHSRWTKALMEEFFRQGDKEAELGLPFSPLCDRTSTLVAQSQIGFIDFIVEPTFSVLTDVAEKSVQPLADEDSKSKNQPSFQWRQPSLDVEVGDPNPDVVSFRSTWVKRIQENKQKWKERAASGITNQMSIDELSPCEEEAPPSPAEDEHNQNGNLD
Chain of PDE1C (Q14123 whole entry, species assumed): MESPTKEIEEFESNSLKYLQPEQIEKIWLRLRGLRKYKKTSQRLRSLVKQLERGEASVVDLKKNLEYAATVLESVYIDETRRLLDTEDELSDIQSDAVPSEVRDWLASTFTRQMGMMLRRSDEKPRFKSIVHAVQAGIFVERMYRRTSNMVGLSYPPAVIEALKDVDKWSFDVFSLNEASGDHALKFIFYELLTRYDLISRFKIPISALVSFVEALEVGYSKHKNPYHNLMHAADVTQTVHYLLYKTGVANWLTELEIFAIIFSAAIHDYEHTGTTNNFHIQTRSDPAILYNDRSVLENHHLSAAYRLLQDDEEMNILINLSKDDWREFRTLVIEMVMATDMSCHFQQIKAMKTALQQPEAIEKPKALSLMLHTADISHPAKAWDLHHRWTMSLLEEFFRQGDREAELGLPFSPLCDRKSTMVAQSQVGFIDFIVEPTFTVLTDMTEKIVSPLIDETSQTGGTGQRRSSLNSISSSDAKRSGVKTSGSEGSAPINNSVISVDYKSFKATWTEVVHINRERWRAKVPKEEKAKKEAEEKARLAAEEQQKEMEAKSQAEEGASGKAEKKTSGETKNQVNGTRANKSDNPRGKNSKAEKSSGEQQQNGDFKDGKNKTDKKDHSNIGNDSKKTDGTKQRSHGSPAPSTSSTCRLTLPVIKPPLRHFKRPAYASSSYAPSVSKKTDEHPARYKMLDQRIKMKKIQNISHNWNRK

COc1ccc2c([C@H]3CCc4ccc(Cl)cc43)ncnc2c1OC [PF-04822163, (S)-4-(6-Chloro-2,3-dihydro-1H-inden-1-yl)-7,8-dimethoxyquinazoline]
IC50 (PDE1C): 7 nM | selectivity over other PDEs for PDE1C (PDE1C): 36 fold | IC50 (PDE1B [1]): 2.4 nM | selectivity over other PDEs for PDE1B (PDE1B [1]): 105 fold | Ki (5-HT6): 4860 nM | off-target binding (>50% inhibition) [2]: no significant off-target binding | selectivity over other PDEs (PDE1B [3]): > 100 fold | Ki (5-HT2B): 262 nM | IC50 (PDE10A): 252 nM | logD [4]: 2.53 | decrease in radioactivity signal in PDE1B-rich regions (PDE1B [5]): 47–71% | melting point: 122 to 124 °C | IC50 (PDE1A): 2 nM | selectivity over other PDEs for PDE1A (PDE1A): 126 fold | reduction in uptake (AUC) in different brain regions (PDE1 [6]; pretreatment with unlabeled blocker 1 mg/kg, 10 min before [11C]PF-04822163, AUC 0–20 min): 7–12%

COc1c(O[11CH3])ccc2c([C@H]3CCc4ccc(Cl)cc43)ncnc12 [[^11C]PF-04822163]
remained unchanged in the brain ([7]; rat brain): 95% | remained unchanged in plasma ([7]; rat plasma): 26% | uptake ([8]; at 1 and 5 min, heart, lung, liver, kidney, adrenal, and brain): ≥ 3 % ID/g | liver uptake ([8]; at 60 min): 5 % ID/g | SUVmax (PDE1 [6]; striatum, 3 min post-tracer administration, baseline): 2.0

CN1C(=O)c2c(nn(Cc3ccc(-c4cccc(F)n4)cc3)c2Nc2ccccc2)N2C1=N[C@@H]1CCC[C@@H]12 [ITI-214]
selectivity over other PDEs (PDE1 [9]; PDE1 over other PDEs, ref Li et al., 2016): > 1000 fold | IC50 (PDE1 [9]; ref Li et al., 2016): 0.058 nM

CCOC(=O)C1=C[C@]2(CC)CCCN3CCc4c(n1c1ccccc41)[C@@H]32 [Vinpocetine]
IC50 (PDE1 [9]): 30000 nM
